Measured values reported in patent US20210236668A1, “COMPOSITIONS FOR RADIOTHERAPY AND USES THEREOF” (The Trustees of Columbia University in the City of New York, priority 2018, published 2021).
Values joined by “and” are separate entries in the source; they are usually repeats but may differ in a detail not shown here. Identical values can stand only once. Counter-ions that a name gives are not always drawn. Like-named read-outs stand apart in the source and are kept apart here.

Key:
NCI-28H cells = details: for % survival from untreated cells: cells + drug / Average reading: cells + drug / Average absorbance reading: cells + drug / % survival cells after exposure to drug for 72 hrs (cells + drug only) / Average absorbance readings: cells + drug: NCI-28H
NCI-2052H cells = test: Cytotoxicity assay (MTS, CellTiter 96 AQueous One, 490 nm), 72 hrs; format: cell-based; details: for Average reading: cells + drug: absorbance 490 nm
Description: Read absorbance (MTS assay) and calculate cells survival rate. Compare survival rate
1,500,000 cells/440,000=3.4 ml of cells/media mix need to take from flask and transfer to 26.6 ml media. In 50 ml Falcon tube, combine 26.6 ml fresh medium and 3.4 ml cells. Gently mix.
1. Centrifuge tubes at 3200 rpm for 3 min. Take out supernatant.
6. Check the plates and start incubation for 72 hrs at 37° C./5% CO2.
5. Incubate plate 1 hr at 37° C., 5% CO2.
Compare survival rate of cells.
1. […] Protocol how to do that see in previous cytotoxicity experiment.
1. Incubate plate for 72 hrs at 37° C., 5% CO2.
6. Incubate plate 1 hr at 37° C., 5% CO2.

[1] = Talc bound to hot/cold Avidin, 48 hrs wash in PBS containing 10% FBS, absorbance 450 nm; format: physicochemical; details: 48 hrs in PBS containing 10% FBS
Description: Purpose: To check how strong the conjugate of hot/cold Avidin to Talc is. […] Absorbance will be checked twice—once before washing with PBS containing 10% FBS and after 48 hours, washing will be done.
14. […] Two identical microplates need to be set up, labeling them as: plate #1 and plate #2. Design of the plate:
3. Wash both plates 3× with 300 μL PBS.
5. […] Mix constantly, cover plate with Aluminum foil.
6. Add 100 μL of TMB to samples in plate #1.
9. Read absorbance at 450 nm using the plate reader.
3. Collect 100 μL supernatant from samples except native controls and load on same plate.
4. Wash plate except supernatant samples 3× with 300 μL PBS.
6. Add 100 μL of TMB to all samples in plate #2.

In the case of `N.N.O=C([O-])C1(C(=O)[O-])CCC1.[Pt+2]` [Carboplatin], the “% survival from untreated cells: cells + drug” value (NCI-28H cells; carboplatin 0.006 μM) is reported as 90.84% and 94.28%, the “Average reading: cells + drug” value (NCI-28H cells; carboplatin 0.006 μM, absorbance 490 nm) is reported as 1.504 and the “% survival from untreated cells: cells + drug” value (NCI-28H cells; carboplatin 0.8 μM) is reported as 85.98% and 87.53%. For the same compound, the “Average reading: cells + drug” value (NCI-28H cells; carboplatin 0.8 μM, absorbance 490 nm) was 1.4238, the “% survival from untreated cells: cells + drug” value (NCI-28H cells; carboplatin 4 μM) was 96.93% and 93.62% and the “Average reading: cells + drug” value (NCI-28H cells; carboplatin 4 μM, absorbance 490 nm) was 1.605. The “% survival from untreated cells: cells + drug” value (NCI-28H cells; carboplatin 20 μM) was 104.81% and 99.20%, the “Average reading: cells + drug” value (NCI-28H cells; carboplatin 20 μM, absorbance 490 nm) was 1.7355 and the “% survival from untreated cells: cells + drug” value (NCI-28H cells; carboplatin 100 μM) was 83.82% and 79.53%. The “Average reading: cells + drug” value (NCI-28H cells; carboplatin 100 μM, absorbance 490 nm) was 1.388, the “% survival from untreated cells: cells + drug” value (NCI-28H cells; carboplatin 500 μM) was 37.38% and 35.14% and the “Average reading: cells + drug” value (NCI-28H cells; carboplatin 500 μM, absorbance 490 nm) was 0.6189.
In the case of `N.N.[Cl][Pt][Cl]` [Cisplatin], the “cytotoxicity to NCI-28H cells, comparison” value (NCI-28H cells) is reported as “no noticeable difference in toxicity”, the “Average reading: cells + cisplatin” value (NCI-28H cells; 72 hrs, Cisplatin 20 μM) is reported as 0.48 and the “Average reading: cells + cisplatin” value (NCI-28H cells; 72 hrs, Cisplatin 100 μM) is reported as 0.59.
With `COc1cccc2c1C(=O)c1c(O)c3c(c(O)c1C2=O)C[C@@](O)(C(=O)CO)C[C@@H]3O[C@H]1C[C@H](N)[C@H](O)[C@H](C)O1` [DOX, Doxorubicin Hydrochloride] the “% survival from untreated cells” value (NCI-2052H cells; doxorubicin 400 nM) was 57.76%, the “% survival from untreated cells” value (NCI-2052H cells; doxorubicin 2000 nM) was 25.59% and the “% survival from untreated cells” value (NCI-2052H cells; doxorubicin 10,000 nM) was 18.91%. For the same compound, the “AVERAGE: cells + DOX (absorbance)” value (NCI-28H cells; 72 hrs, DOX 0.000064 μM) was 1.18, the “AVERAGE: cells + DOX (absorbance)” value (NCI-28H cells; 72 hrs, DOX 0.2 μM) was 0.89 and the “AVERAGE: cells + DOX (absorbance)” value (NCI-28H cells; 72 hrs, DOX 1 μM) was 0.67. The “AVERAGE: cells + DOX (absorbance)” value (NCI-28H cells; 72 hrs, DOX 5 μM) was 0.63, the “% survival from untreated by DOX cells” value (NCI-28H cells; 72 hrs, Dox 200 nM) was 65.0% and the “% survival NCI-28H cells after different treatment (compare to untreated cells)” value (NCI-28H cells; cells + 125 nM DOX) was 70%.
With `CC(=O)O[C@H]1C(=O)[C@@]2(C)[C@H]([C@H](OC(=O)c3ccccc3)[C@]3(O)C[C@H](OC(=O)[C@H](O)[C@@H](NC(=O)c4ccccc4)c4ccccc4)C(C)=C1C3(C)C)[C@]1(OC(C)=O)CO[C@@H]1C[C@@H]2O` [Paclitaxel] the “Average reading: cells + drug” value (NCI-2052H cells; paclitaxel 0.256 nM) was 1.4273, the “Average reading: cells + drug” value (NCI-2052H cells; paclitaxel 6.4 nM) was 1.54 and the “Average reading: cells + drug” value (NCI-2052H cells; paclitaxel 32 nM) was 0.5818. For the same compound, the “Average reading: cells + drug” value (NCI-2052H cells; paclitaxel 160 nM) was 0.4361, the “Average reading: cells + drug” value (NCI-2052H cells; paclitaxel 800 nM) was 0.4326 and the “Average reading: cells + drug” value (NCI-2052H cells; paclitaxel 4000 nM) was 0.553. The “Average reading: cells + drug” value (NCI-2052H cells; paclitaxel 20,000 nM) was 0.1647 and the “Average readings: cells + drug” value (NCI-28H cells; Paclitaxel 80 nM, absorbance 490 nm) was 1.10.
In the case of `Nc1ccn([C@@H]2O[C@H](CO)[C@@H](O)C2(F)F)c(=O)n1` [gemcitabine, Gemcitabine], the “cytotoxicity to NCI-28H cells, comparison” value (NCI-28H cells) is reported as “clear cytotoxic effect”, the “% survival from untreated cells: cells + drug” value (NCI-28H cells; gemcitabine 0.0026 μM) is reported as 114.61% and the “Average absorbance reading: cells + drug” value (NCI-28H cells; gemcitabine 0.0026 μM) is reported as 2.034. The “% survival from untreated cells: cells + drug” value (NCI-28H cells; gemcitabine 0.013 μM) was 107.85%, the “Average absorbance reading: cells + drug” value (NCI-28H cells; gemcitabine 0.013 μM) was 1.914 and the “% survival from untreated cells: cells + drug” value (NCI-28H cells; gemcitabine 0.064 μM) was 80.60%. The “Average absorbance reading: cells + drug” value (NCI-28H cells; gemcitabine 0.064 μM) was 1.43, the “% survival from untreated cells: cells + drug” value (NCI-28H cells; gemcitabine 8 μM) was 56.58% and the “Average absorbance reading: cells + drug” value (NCI-28H cells; gemcitabine 8 μM) was 1.004. The “% survival from untreated cells: cells + drug” value (NCI-28H cells; gemcitabine 40 μM) was 60.09%, the “Average absorbance reading: cells + drug” value (NCI-28H cells; gemcitabine 40 μM) was 1.0663 and the “% survival from untreated cells: cells + drug” value (NCI-28H cells; gemcitabine 200 μM) was 52.70%. For the same compound, the “Average absorbance reading: cells + drug” value (NCI-28H cells; gemcitabine 200 μM) was 0.9352.
With `CO[C@@]12[C@H](COC(N)=O)C3=C(C(=O)C(C)=C(N)C3=O)N1C[C@@H]1N[C@@H]12` [mitomycin, Mitomycin] the “Average reading: cells + drug” value (NCI-2052H cells; mitomycin 0.013 μM) was 1.284, the “Average reading: cells + drug” value (NCI-2052H cells; mitomycin 0.064 μM) was 1.199 and the “Average reading: cells + drug” value (NCI-2052H cells; mitomycin 8 μM) was 0.4142. The “Average reading: cells + drug” value (NCI-2052H cells; mitomycin 40 μM) was 0.2305, the “Average reading: cells + drug” value (NCI-2052H cells; mitomycin 200 μM) was 0.2098 and the “Average reading: cells + drug” value (NCI-2052H cells; mitomycin .0026 μM) was 1.424. The “% survival cells after exposure to drug for 72 hrs (cells + drug only)” value (from here on “% survival cells after exposure to drug”) (NCI-28H cells; mitomycin 0.0026 μM, 72 hrs) was 106.12%, the “Average absorbance readings: cells + drug” value (from here on “Average absorbance readings”) (NCI-28H cells; mitomycin 0.0026 μM) was 2.032 and the “% survival cells after exposure to drug” value (NCI-28H cells; mitomycin 0.013 μM, 72 hrs) was 102.65%. The “Average absorbance readings” value (NCI-28H cells; mitomycin 0.013 μM) was 1.965, the “% survival cells after exposure to drug” value (NCI-28H cells; mitomycin 0.064 μM, 72 hrs) was 98.03% and the “Average absorbance readings” value (NCI-28H cells; mitomycin 0.064 μM) was 1.8766. The “% survival cells after exposure to drug” value (NCI-28H cells; mitomycin 8 μM, 72 hrs) was 18.03%, the “Average absorbance readings” value (NCI-28H cells; mitomycin 8 μM) was 0.3451 and the “% survival cells after exposure to drug” value (NCI-28H cells; mitomycin 40 μM, 72 hrs) was 27.16%. For the same compound, the “Average absorbance readings” value (NCI-28H cells; mitomycin 40 μM) was 0.52, the “% survival cells after exposure to drug” value (NCI-28H cells; mitomycin 200 μM, 72 hrs) was 12.87% and the “Average absorbance readings” value (NCI-28H cells; mitomycin 200 μM) was 0.2464.
For “Avidin: Avidin from egg white (Sigma A9275), 66 kDa biotin-binding protein; unlabeled = cold Avidin”, the “binding of Avidin to talc at 48 hours” value [1] was “unchanged”.
